“Also recorded” adds a separate entry of the source. The star is where a group is joined. Palmitoyl = CCCCCCCCCCCCCCCC(=O)*
Key:
[1] = Heme titration, stoichiometry and binding constant analysis (UV/visible)
Method: FIGS. 14A-14P depict stoichiometry and binding constant analysis of peptide titrations (0-1000 μM XX in 50 μM titrants) into heme solutions (50 μM) in Hepes buffer (right) or 10 mM NH4OH (left). UV/visible spectroscopy and plots of [Peptide]/[Heme] vs. absorption (λSoret). The solid lines represent the binding constant analysis and were obtained in Origin v9.1 by applying equation 1 (FIG. 15). The following values were fixed: M=5×10^−5 M, 1=0.1 cm. All other values were permitted to float for the first round of analysis. Once n was determined, a common integer was applied to each data set within the conditions employed, e.g. n=3 for HEPES and n=6 for 10 mM NH4OH. The vertical line at x=10 marks the samples that were analyzed further by UV/vis and EPR.
FIG. 15 is the equation employed for stoichiometry and binding constant analysis; the follow variables are used: Ao, initial absorption; ϵB, extinction of bound heme; ϵs, extinction coefficient contribution from scattering; x, ratio of peptide to heme; n, set stoichiometry of peptide to heme; Kd, dissociation (binding) constant M, molar concentration of heme; l, cuvette pathlength.
Sample Preparation. Each peptide (3-4 mg) was dissolved in nanopure water (Millipore A10) to obtain a 1 wt % solution, c16-AAL3K3-CO2H (SEQ ID NO: 9) (1 wt %, 8.9 mM), c16-AHL3K3-CO2H (SEQ ID NO: 3) (1 wt %, 8.4 mM), c16-HHL3K3-CO2H (SEQ ID NO: 4) (1 wt %, 7.9 mM) and c16-MHL3K3-CO2H (SEQ ID NO: 5) (1 wt %, 8.0 mM). Hemin (Porcine, Sigma-Aldrich) was dissolved in DMSO (Sigma Aldrich) to achieve a 10 mM stock solution. Note: He-min/DMSO stock solutions were always made to ensure that the final DMSO concentration in the sam-ple was less than 1% (v/v). Typically, 38 μL of a 1 wt % stock solution was dissolved in 260 μL of ei-ther HEPES (50 mM HEPES, 100 mM NaCl pH 7.0) or 10 mM NH4OH, pH 10.5 to yield a 1 mM sample. […] Titration experiments analyzed samples that contained 50 μM Heme in either Hepes buffer or 10 mM NH4OH. […]

[2] = Spectroelectrochemistry, midpoint potential; type: physicochemical
Method: Electrochemistry. The samples were placed in a spectroecltrochemical cell (1 mm quartz) equipped with a platinum mesh working electrode, platinum wire auxiliary electrode, and a Ag/AgCl reference electrode (Basi, Inc.). […] Each applied voltage setting was allowed to equilibrate for a minimum of 20 minutes prior to UV/visible spectral acquisition (Perkin Elmer, Lambda 950, UV/vis/NIR spectrophotometer). Midpoint potential analysis was achieved by fitting a standard Boltzmann curve to the obtained data (OriginPro 9.1).

[3] = Peroxidase activity assay (TMB oxidation with H2O2); type: biochemical; conditions: for peroxidase activity over extended times: TMB ~300 μM, H2O2 ~300 μM, Peptide 10 μM, Heme 1 μM, HEPES pH 7; for peroxidase activity (oxidation of TMB): assemblies prepared in pH 7 HEPES (micelles), assay at pH 7, peptide 10 μM, heme 1 μM
Method: Peroxidase Activity Assay. Peroxidase activity was monitored using a Varian Cary 50 spectrophotometer and the kinetics software package. 652 nm was the chosen wavelength based on its characterization in the literature (extinction coefficient: 39,000 M−1 cm-1). In a solution of HEPES buffer, pH 7 (50 mM HEPES 100 mM NaCl), a commercially available cocktail of 3,3′,5,5′-Tetramethylbenzidine (TMB) and H2O2 (both ˜3 mM, purchased from Sigma-Aldrich) was diluted 1:10. This was monitored for 1 minute to detect any changes in the background then protein was added (prepared as above at 500 μM peptide and 50 μM heme) to a final concentration of 10 μM (1 μM Heme). The reaction was allowed to run for 15 minutes to assure completion. In the case of Michaelis-Menten analyses two stock solutions of TMB (10 mg/mL, 41.6 mM in DMSO) and peroxide (52.8 mM diluted in H2O, H2O2 stock concentration standardized by the method of Klassen et. al.) (57) were made so the concentrations could be varied de-pending on the experiment. When varying peroxide concentration TMB was at a concentration of 300 μM. Michaelis-Menten curves were fit using Origin 9.1 software to the equation (v0=kCat[E]0[S]0/(KM+[S]0)). Catalytic efficiency values (kCat/KM) were determined by fitting the linear portion of those curves to the equation (v0=(kCat/KM)[E]0[S]0). Total amount of oxidized TMB was calcu-lated by integrating the absorbance at 652 nm (done with Origin 9.1 software), and dividing that value by the extinction coefficient.
Many natural and synthetic heme proteins display peroxidase activity, a natural reaction that catalyzes the oxidation of high potential substrates using hydrogen peroxide (H2O2). Here, we employed heme-peroxidase catalysis as a benchmark reaction to investigate how supramolecular morphology in PA-Heme assemblies can control catalytic reactivity. (53) We have chosen the established protocol where H2O2 activated by the XXHeme assemblies reacts with the colorless molecule 3,3′,5,5′-tetramethylbenzidine (TMB) to yield the oxidized blue diimine product and water. (54) All of these assays were carried out in pH 7 HEPES buffer. Peptide assemblies were prepared in either pH 7 HEPES or 10.5 NH4OH and then diluted 50 fold into the reaction mixture to maintain standard reaction conditions. […] The rates of these peptides are consistent with the Michaelis-Menten enzyme kinetics model (FIGS. 19C, 19D, and 21). […] Applicants show a clear and significant dependence of peroxidase activity dependent on supramolecular morphology. […] The micelle structures offer a more dynamic assembly that allows substrate to interact with the engineered heme active site.

| Substance | heme binding affinity (Kd), in words ([1]; fibers, compared with micelles) | midpoint potential (EM) vs. SHE ([2]; fibers, 10 mM NH4OH) | midpoint potential (EM) vs. SHE ([2]; micelles, HEPES) | peroxidase activity over extended times [3] | peroxidase activity (oxidation of TMB) [3] | kCat, in words ([3]; micelles, pH 7) | heme binding affinity (Kd), in words ([1]; micelles) |
| --- | --- | --- | --- | --- | --- | --- | --- |
| c16-MHL3K3-CO2H (Palmitoyl-MHLLLKKK-OH; also: heme) [MHHeme, XXHeme denotes the holo state] | decrease in heme binding affinity | −442 mV | −312 mV | most initial activity | varying degrees of peroxidase activity | higher kCat, than HHHeme | – |
| c16-AHL3K3-CO2H (Palmitoyl-AHLLLKKK-OH; also: heme) [AHHeme, XXHeme denotes the holo state] | binding affinity actually increases | −655 mV | −315 mV | most initial activity | varying degrees of peroxidase activity | – | – |
| c16-AAL3K3-CO2H (Palmitoyl-AALLLKKK-OH; also: heme) [AAHeme, control peptide amphiphile without heme coordination site; XXHeme denotes the holo state (coordinated heme)] | – | – | – | does not appear to have any activity | not reactive | – | – |
| c16-HHL3K3-CO2H (Palmitoyl-HHLLLKKK-OH; also: heme) [HHHeme, XXHeme denotes the holo state] | – | −333 mV | −270 mV | – | varying degrees of peroxidase activity; also recorded: low reactivity compared to the other peptides | – | highest binding affinity |
